16 molecules from ChEMBL document CHEMBL1148890, “Design, synthesis, and structure-activity relationship of carbamate-tethered aryl propanoic acids as novel PPARalpha/gamma dual agonists” (Bioorg Med Chem Lett, 2007) can be followed below.

Assay [1] concerns the target T1, Peroxisome proliferator-activated receptor gamma (Homo sapiens, UniProt P37231).
T1 sequence (P37231 whole entry): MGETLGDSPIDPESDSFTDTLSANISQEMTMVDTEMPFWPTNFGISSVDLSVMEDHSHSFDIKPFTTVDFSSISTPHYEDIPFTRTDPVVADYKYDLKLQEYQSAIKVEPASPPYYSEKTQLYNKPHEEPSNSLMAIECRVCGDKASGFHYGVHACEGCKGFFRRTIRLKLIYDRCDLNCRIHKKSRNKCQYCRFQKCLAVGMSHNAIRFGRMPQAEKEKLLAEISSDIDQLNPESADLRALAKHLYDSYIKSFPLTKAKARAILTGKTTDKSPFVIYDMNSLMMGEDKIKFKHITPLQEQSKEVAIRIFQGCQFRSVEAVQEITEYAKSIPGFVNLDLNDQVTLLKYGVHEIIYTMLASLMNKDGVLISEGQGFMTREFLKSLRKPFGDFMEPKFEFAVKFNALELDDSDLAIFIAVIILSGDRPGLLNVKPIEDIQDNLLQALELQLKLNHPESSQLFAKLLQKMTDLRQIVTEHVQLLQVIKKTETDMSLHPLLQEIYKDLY
Description: Agonist activity at human PPARgamma in CV1 cells by GAL4 transactivation assay after 24 hrs

Assay [2] has as its target T2, Peroxisome proliferator-activated receptor alpha (Homo sapiens, UniProt Q07869).
T2 sequence (Q07869 whole entry): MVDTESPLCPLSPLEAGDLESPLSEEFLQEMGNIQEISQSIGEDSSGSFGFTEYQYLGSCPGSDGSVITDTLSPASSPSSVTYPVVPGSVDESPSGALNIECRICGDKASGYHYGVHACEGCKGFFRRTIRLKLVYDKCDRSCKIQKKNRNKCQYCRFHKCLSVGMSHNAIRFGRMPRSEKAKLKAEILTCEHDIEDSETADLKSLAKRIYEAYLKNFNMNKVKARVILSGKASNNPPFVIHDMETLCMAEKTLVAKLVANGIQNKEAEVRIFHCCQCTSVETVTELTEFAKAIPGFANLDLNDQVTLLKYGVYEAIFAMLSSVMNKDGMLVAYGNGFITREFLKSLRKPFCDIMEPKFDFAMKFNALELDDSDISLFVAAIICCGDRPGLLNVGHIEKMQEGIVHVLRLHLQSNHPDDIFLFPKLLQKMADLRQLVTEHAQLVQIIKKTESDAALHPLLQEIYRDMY
Description: Agonist activity at human PPARalpha in CV1 cells by GAL4 transactivation assay after 24 hrs

For orientation: EC50 means the concentration giving half of the maximal effect. Higher therefore signals weaker potency. In the case of `CCO[C@H](Cc1ccc(CCC(OC(=S)NCc2ccccc2)c2ccccc2)cc1)C(=O)O` (some centres undefined), the EC50 in assay [1] worked out at 0.35 µM.

In the case of `CCO[C@@H](Cc1ccc(CCC(OC(=S)NCC2CCCCC2)c2ccccc2)cc1)C(=O)O` (some centres undefined), the EC50 amounted to 10.7 µM in assay [2] and 1.06 µM in assay [1].

With `CCO[C@H](Cc1ccc(CCC(OC(=S)NCCc2ccccc2)c2ccccc2)cc1)C(=O)O` (some centres undefined), the values for the EC50 in assay [2] and in assay [1] were 2.77 µM and 1.05 µM, respectively.

Turning to `CCO[C@@H](Cc1ccc(CCC(OC(=O)NCc2ccccc2)c2ccccc2)cc1)C(=O)O` (some centres undefined), the results for the EC50 in assay [2] and in assay [1] were 6.05 µM and 1.42 µM, respectively.

As for `CCO[C@H](Cc1ccc(CCC(OC(=S)NCc2ccc(C(C)(C)C)cc2)c2ccccc2)cc1)C(=O)O` (some centres undefined), the figures for the EC50 in assay [2] and in assay [1] were 0.38 µM and 0.14 µM, respectively.

With `CCO[C@@H](Cc1ccc(CCC(O)c2ccccc2)cc1)C(=O)O` (some centres undefined), the EC50 was 1.51 µM in assay [2] and 0.3 µM in assay [1].

In the case of `CCNC(=S)OC(CCc1ccc(C[C@H](OCC)C(=O)O)cc1)c1ccccc1` (some centres undefined), the EC50 in assay [2] stood at 20.4 µM; in assay [1] it was 5.39 µM.

As for `CCCCNC(=S)OC(CCc1ccc(C[C@H](OCC)C(=O)O)cc1)c1ccccc1` (some centres undefined), the EC50 in assay [2] turned out to be 7.26 µM; in assay [1], 3.6 µM.

Turning to `CCO[C@@H](Cc1ccc(CCC(OC(=S)Nc2ccccc2)c2ccccc2)cc1)C(=O)O` (some centres undefined), the EC50 in assay [2] was determined as 5.25 µM; in assay [1], 4.58 µM.

Take `CCO[C@@H](Cc1ccc(CCC(OC(=S)NCc2ccc(C(C)(C)C)cc2)c2ccccc2)cc1)C(=O)O` (some centres undefined): the EC50 in assay [2] was 3.27 µM; in assay [1], 0.16 µM.

As to `CCO[C@@H](Cc1ccc(CCCOC(=S)NCc2ccccc2)cc1)C(=O)O`, the values for the EC50 in assay [2] and in assay [1] were 1.47 µM and 1.4 µM, respectively.

Consider `CCO[C@@H](Cc1ccc(OCC(OC(=S)NCc2ccccc2)c2ccccc2)cc1)C(=O)O` (some centres undefined), for which the values for the EC50 in assay [2] and in assay [1] were 6.21 µM and 7.17 µM, respectively.

In assay [2], `Cc1ccc(C)c(OCCCC(C)(C)C(=O)O)c1` [GEMFIBROZIL] came in with an EC50 of 193 µM.

For the molecule `CCCNC(=S)OC(CCc1ccc(C[C@H](OCC)C(=O)O)cc1)c1ccccc1` (some centres undefined), the EC50 in assay [2] is 3.94 µM; in assay [1], 3.48 µM.

On to `CCO[C@@H](Cc1ccc(CCC(OC(=S)NCc2ccccc2)c2ccccc2)cc1)C(=O)O` (some centres undefined), for which, in assay [1], a half-maximal response (EC50) required 0.58 µM.

As for `CCO[C@@H](Cc1ccc(CCC(OC(=S)NCCc2ccccc2)c2ccccc2)cc1)C(=O)O` (some centres undefined), the values for the EC50 in assay [2] and in assay [1] were 0.88 µM and 0.49 µM, respectively.
